Results on 31 sequences are retold here after publication PMC4223075, “A Conserved Peptide Pattern from a Widespread Microbial Virulence Factor Triggers Pattern-Induced Immunity in Arabidopsis” (PLoS Pathogens, 2014).

No end group written: not given here. A value given as a limit tells only on which side of the number the result lay.

This experiment relates to Arabidopsis leaves. In words: Ethylene formation in Arabidopsis leaves / leaf discs. Type of experiment: cell-based, Arabidopsis thaliana. The conditions noted are these: for EC50: synthetic peptides, Arabidopsis leaves, at least six different peptide concentrations, means ± SD of three replicates. The procedure:
For MAPK activity assays, infiltrated plant material was harvested after 15 minutes and frozen in liquid nitrogen before used for protein extraction in 20 mM Tris-HCl pH 7.5, 150 mM NaCl, 1 mM EDTA, 1% Triton X-100, 0,1% SDS, 5 mM DTT, Complete Protease Inhibitor Mini, EDTA-free (Roche, Mannheim), PhosStop Phosphatase Inhibitor Cocktail (Roche, Mannheim). After pelleting the cell debris (10 min, 16000 g, 4°C), the supernatant (30 µg protein) was separated on a 10% SDS-PAGE and transferred to a nitrocellulose membrane and activated MAPK6, 3 and 4 were detected by western blotting using the anti phospho p44/42-MAPK antibody from rabbit (Cell Signaling Technology, The Netherlands). For ROS burst measurements two leaf pieces, floated on ddH2O overnight, were placed in one well of a 96-well plate, containing 100 µl of a 20 µM L-012 and 0.5 µg ml^−1 peroxidase solution. Background was measured shortly in a 96-well Luminometer, (Mithras LB 940, Berthold Technologies) before elicitation with a peptide solution or control treatment respectively. The detection of ethylene was performed as described. Leaf pieces were incubated in 20 mM MES buffer, pH 5.7. To visualize callose apposition, leaves were treated as described and harvested 24 hours after infiltration of a peptide solution. Quantification of callose was performed by counting selected pixels and calculated in % relative to the respective image section of the leaf surface. Pictures were analyzed using Photoshop CS6 Magic tool, hereby removing background and leaf-veins within a certain color range. (Use: white, Mode: normal, Opacity: 100%). Medium alkalinization in suspension-cultured Arabidopsis cells and detection of GUS enzyme activity in PR1::GUS transgenic Arabidopsis plants were performed as described previously, [43]. Surface-sterilized Arabidopsis Col-0 seeds were grown in ½ MS liquid medium supplemented with 1 µM of nlp20 (PpNLP) peptide or its orthologs respectively, and flg22 or H2O serving as controls. Root length of two weeks-old seedlings was determined upon transfer onto agar plates.

As to AAMYSWYFPKDSPVTGLGHRHDWE [compound 16], the EC50 amounted to 1.57 ± 0.252 µM.

As for AIAYSWYFPKDSPVTGLGHRHDWE [compound 17], the EC50 was 0.042 ± 0.009 µM.

Consider AIMASWYFPKDSPVTGLGHRHDWE [compound 18], for which it took 1.5 ± 0.436 µM to reach a half-maximal effect (EC50).

The sequence AIMYAWYFPKDSPVTGLGHRHDWE [compound 19] gave an EC50 of 0.018 ± 0.01 µM.

Turning to AIMYSWAFPKDSPVTGLGHRHDWE [compound 21], the midpoint of the response, the EC50, lay at 2.63 ± 0.208 µM.

With AIMYSWYAPKDSPVTGLGHRHDWE [compound 22], a half-maximal effect (EC50) was put at 0.0054 ± 0.003 µM.

The sequence AIMYSWYFAKDSPVTGLGHRHDWE [compound 23] yielded an EC50 of 0.307 ± 0.153 µM.

Turning to AIMYSWYFPADSPVTGLGHRHDWE [compound 24], the EC50 was 0.089 ± 0.031 µM.

For the sequence AIMYSWYFPKASPVTGLGHRHDWE [compound 25], the EC50 came out at 0.097 ± 0.036 µM.

The sequence AIMYSWYFPKDAPVTGLGHRHDWE [compound 26] gave an EC50 of 0.057 ± 0.028 µM.

On to AIMYSWYFPKDSAVTGLGHRHDWE [compound 27], for which a half-maximal response (EC50) required 0.076 ± 0.045 µM.

In the case of AIMYSWYFPKDSPATGLGHRHDWE [compound 28], a half-maximal effect (EC50) was put at 0.03 ± 0.011 µM.

Take AIMYSWYFPKDSPVAGLGHRHDWE [compound 29]: a half-maximal effect (EC50) was put at 0.025 ± 0.015 µM.

Consider AIMYSWYFPKDSPVTALGHRHDWE [compound 30], for which a half-maximal effect (EC50) was put at 0.023 ± 0.0076 µM.

Turning to AIMYSWYFPKDSPVTGAGHRHDWE [compound 31], the midpoint of the response, the EC50, lay at 0.024 ± 0.008 µM.

Take AIMYSWYFPKDSPVTGLAHRHDWE [compound 32]: the EC50 stood at 0.22 ± 0.078 µM.

The sequence AIMYSWYFPKDSPVTGLGARHDWE [compound 33] showed an EC50 of 0.048 ± 0.034 µM.

In turn, AIMYSWYFPKDSPVTGLGHAHDWE [compound 34] had an EC50 of 0.283 ± 0.04 µM.

For AIMYSWYFPKDSPVTGLGHRADWE [compound 35], a half-maximal response (EC50) required 0.0077 ± 0.0017 µM.

AIMYSWYFPKDSPVTGLGHRHAWE [compound 36]: the EC50 is 0.0062 ± 0.0056 µM.

Consider AIMYSWYFPKDSPVTGLGHRHDAE [compound 37], for which the EC50 is 0.0073 ± 0.0018 µM.

The sequence AIMYSWYFPKDSPVTGLGHRHDWA [compound 38] yielded an EC50 of 0.0073 ± 0.0017 µM.

IMYSWYFPKDSPVTGLGHR [compound 10] returned an EC50 of 0.133 ± 0.01 µM.

With KDSPVTGLGHRHDWE [compound 5], the EC50 is > 100 µM.

Take MYSWYFPKDSPVTGLGHR [compound 11]: the EC50 worked out at 1.55 ± 0.328 µM.

RVATYNGVYAIMYSWYFPKD [compound 7] gave an EC50 of 0.084 ± 0.011 µM.

Turning to SWYFPKDSPVTGLGH [peptide 4], the EC50 was > 100 µM.

For the sequence SWYFPKDSPVTGLGHR [compound 14], the EC50 was > 100 µM.

In turn, WIMYSWYFPKDSPVTGLGHRHDWE [compound 15] returned an EC50 of 0.055 ± 0.024 µM.

For the sequence YAIMYSWYFPKDSPV [compound 3], the EC50 was found to be 0.217 ± 0.065 µM.

With YSWYFPKDSPVTGLGHR [peptide 12], the “elicitor activity (ethylene production in Arabidopsis leaf disks), in words” value was “inactive” and the EC50 was > 50 µM.

What is called EC50 is the concentration giving half of the maximal effect.
